One compound from ChEMBL document CHEMBL2321799 (J Med Chem, 2013) can be followed below.

One series deals with PC-3. Briefly: Cytotoxicity against human PC3 cells assessed as LDH release at 25 to 100 uM after 2 hrs by ELISA. In kind it is cell-based. Particulars: pc-3, 2 h.
For another series, the target named is T1, Ephrin type-A receptor 8 (Homo sapiens, UniProt P29322).
T1 sequence (P29322 whole entry): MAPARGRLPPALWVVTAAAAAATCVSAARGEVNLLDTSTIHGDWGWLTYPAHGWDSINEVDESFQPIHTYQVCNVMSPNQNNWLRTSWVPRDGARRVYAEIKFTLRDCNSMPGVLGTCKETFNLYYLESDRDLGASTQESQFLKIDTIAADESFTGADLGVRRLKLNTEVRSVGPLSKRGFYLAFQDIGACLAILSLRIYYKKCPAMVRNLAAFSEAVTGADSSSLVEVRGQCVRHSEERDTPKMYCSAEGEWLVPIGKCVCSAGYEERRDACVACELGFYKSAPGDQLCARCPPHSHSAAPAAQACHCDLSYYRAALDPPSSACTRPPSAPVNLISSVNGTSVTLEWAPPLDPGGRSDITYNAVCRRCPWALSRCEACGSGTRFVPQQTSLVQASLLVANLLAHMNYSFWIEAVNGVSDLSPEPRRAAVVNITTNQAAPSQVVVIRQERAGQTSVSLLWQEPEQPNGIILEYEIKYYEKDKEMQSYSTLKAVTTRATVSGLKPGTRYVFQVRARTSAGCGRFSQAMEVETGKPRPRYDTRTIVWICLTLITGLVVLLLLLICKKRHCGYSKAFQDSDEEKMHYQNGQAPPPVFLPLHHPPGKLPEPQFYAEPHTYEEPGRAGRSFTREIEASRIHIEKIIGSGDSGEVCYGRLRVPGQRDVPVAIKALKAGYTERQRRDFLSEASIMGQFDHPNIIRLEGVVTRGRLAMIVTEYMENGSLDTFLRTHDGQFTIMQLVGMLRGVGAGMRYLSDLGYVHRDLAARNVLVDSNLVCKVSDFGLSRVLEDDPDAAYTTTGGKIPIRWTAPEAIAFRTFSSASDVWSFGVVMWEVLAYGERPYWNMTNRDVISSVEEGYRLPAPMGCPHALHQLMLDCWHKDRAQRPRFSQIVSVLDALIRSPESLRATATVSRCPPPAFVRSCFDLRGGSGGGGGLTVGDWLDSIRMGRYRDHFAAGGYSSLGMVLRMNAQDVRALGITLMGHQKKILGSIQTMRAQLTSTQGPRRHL
The experiment in a line: Displacement of ephrin-A1-Fc from EphA8 receptor Fc ectodomain (unknown origin) after 1 hr by ELISA.

In a further series the target is T2, Ephrin type-A receptor 6 (Homo sapiens, UniProt Q9UF33).
T2 sequence (Q9UF33 whole entry): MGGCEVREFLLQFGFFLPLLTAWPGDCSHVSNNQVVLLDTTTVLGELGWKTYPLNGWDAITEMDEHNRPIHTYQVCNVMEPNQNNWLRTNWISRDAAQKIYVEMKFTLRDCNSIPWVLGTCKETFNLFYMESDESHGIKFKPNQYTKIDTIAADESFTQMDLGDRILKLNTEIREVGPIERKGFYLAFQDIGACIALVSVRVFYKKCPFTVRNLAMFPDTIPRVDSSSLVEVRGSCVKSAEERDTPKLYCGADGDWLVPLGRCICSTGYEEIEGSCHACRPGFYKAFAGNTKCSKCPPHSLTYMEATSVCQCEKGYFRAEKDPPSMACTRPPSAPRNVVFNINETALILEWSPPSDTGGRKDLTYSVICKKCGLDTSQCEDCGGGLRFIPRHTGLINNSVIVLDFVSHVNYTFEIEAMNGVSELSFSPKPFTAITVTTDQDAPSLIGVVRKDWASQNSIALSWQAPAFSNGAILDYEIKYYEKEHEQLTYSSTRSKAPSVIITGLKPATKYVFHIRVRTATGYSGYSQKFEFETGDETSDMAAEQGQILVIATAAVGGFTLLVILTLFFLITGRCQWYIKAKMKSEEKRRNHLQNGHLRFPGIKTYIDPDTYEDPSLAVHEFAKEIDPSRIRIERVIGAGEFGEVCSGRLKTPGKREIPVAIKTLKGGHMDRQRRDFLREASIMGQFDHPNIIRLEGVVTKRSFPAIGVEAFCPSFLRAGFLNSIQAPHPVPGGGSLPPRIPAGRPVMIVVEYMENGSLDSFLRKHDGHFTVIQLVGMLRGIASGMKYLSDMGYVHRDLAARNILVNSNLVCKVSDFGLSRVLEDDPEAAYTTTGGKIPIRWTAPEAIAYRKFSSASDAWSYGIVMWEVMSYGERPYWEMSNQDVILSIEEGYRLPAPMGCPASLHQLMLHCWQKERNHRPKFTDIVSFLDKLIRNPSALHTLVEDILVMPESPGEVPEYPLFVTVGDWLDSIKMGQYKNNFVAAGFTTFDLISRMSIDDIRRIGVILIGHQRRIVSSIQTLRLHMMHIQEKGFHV
Briefly: Displacement of ephrin-A1-Fc from EphA6 receptor Fc ectodomain (unknown origin) after 1 hr by ELISA.

Another series addresses Ephrin type-A receptor 5 (Homo sapiens, UniProt P54756). Briefly: Displacement of ephrin-A1-Fc from EphA5 receptor Fc ectodomain (unknown origin) after 1 hr by ELISA.
The target of the next series is Ephrin type-A receptor 4 (Homo sapiens, UniProt P54764). Briefly: Displacement of ephrin-A1-Fc from EphA4 receptor Fc ectodomain (unknown origin) after 1 hr by ELISA.
Sequence of Ephrin type-A receptor 4 (P54764 whole entry, the tested form may be a part): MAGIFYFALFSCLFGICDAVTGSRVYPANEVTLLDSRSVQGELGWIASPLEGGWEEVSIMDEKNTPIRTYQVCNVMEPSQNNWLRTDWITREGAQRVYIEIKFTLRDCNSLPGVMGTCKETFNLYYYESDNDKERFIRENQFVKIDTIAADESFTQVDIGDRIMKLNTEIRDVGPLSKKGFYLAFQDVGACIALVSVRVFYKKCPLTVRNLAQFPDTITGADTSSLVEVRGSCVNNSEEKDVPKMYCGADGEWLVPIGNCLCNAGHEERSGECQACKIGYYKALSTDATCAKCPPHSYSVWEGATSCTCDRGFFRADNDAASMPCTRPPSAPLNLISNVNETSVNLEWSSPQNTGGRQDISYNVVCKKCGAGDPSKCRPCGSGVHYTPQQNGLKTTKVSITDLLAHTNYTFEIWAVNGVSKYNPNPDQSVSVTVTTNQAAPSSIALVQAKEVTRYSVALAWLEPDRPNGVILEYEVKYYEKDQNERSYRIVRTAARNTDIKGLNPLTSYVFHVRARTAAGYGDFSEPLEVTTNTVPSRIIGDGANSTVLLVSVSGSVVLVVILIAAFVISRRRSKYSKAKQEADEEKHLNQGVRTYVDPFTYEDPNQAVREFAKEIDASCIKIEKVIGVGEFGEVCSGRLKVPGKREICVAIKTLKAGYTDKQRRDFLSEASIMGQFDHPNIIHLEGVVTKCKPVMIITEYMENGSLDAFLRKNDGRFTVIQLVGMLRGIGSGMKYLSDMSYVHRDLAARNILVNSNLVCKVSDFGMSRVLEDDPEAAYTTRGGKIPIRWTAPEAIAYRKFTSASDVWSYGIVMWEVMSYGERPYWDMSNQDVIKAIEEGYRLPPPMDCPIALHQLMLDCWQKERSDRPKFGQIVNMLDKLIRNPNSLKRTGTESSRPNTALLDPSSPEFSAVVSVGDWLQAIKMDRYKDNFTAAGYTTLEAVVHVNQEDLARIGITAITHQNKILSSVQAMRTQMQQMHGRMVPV

Sequence of Ephrin type-A receptor 5 (P54756 whole entry, the tested form may be a part): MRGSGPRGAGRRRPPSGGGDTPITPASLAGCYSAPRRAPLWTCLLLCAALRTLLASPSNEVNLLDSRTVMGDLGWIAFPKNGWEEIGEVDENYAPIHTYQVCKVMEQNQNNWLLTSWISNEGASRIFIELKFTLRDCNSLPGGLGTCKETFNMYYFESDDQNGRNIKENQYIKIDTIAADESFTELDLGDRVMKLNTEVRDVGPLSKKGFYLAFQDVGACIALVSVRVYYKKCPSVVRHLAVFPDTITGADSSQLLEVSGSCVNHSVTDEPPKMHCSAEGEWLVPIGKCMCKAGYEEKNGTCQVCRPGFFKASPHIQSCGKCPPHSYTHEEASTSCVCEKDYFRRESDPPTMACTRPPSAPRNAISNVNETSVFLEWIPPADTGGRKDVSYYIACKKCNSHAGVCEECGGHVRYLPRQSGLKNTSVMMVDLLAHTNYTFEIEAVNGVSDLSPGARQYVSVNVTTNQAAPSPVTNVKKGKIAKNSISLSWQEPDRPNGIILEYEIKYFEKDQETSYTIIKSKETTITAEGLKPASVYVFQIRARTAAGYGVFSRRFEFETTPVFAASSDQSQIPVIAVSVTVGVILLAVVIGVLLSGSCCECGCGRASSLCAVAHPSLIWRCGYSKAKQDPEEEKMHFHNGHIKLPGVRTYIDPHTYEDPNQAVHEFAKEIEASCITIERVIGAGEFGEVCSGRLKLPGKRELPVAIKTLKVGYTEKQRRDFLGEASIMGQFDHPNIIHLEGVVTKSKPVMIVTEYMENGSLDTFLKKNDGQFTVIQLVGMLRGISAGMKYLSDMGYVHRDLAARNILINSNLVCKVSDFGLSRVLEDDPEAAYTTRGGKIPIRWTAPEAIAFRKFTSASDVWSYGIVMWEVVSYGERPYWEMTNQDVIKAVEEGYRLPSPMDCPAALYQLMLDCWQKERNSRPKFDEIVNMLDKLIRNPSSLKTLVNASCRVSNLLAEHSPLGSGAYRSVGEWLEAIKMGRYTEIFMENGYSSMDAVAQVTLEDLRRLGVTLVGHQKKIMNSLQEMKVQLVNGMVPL

Take `C[C@H](CCC(=O)N[C@@H](Cc1c[nH]c2ccccc12)C(=O)O)[C@H]1CC[C@H]2[C@@H]3CC[C@@H]4C[C@H](O)CC[C@]4(C)[C@H]3CC[C@]12C`: the Activity entry in the series on PC-3 is listed as “Non-toxic”. In addition, the IC50 is 1.5 µM at Ephrin type-A receptor 8, 1.5 µM at Ephrin type-A receptor 6, 2.4 µM on Ephrin type-A receptor 5 and 2.7 µM at Ephrin type-A receptor 4.
